Literature values, collected in patent US20040241255A1, “Pharmaceutical composition containing valerina officinalis extract” (priority 2001, published 2004).

System: apnea during NREM sleep in rats
Conditions: injected intraperitoneally

| SMILES | Suppression of apnea during NREM sleep |
| --- | --- |
| OC[C@H]1O[C@@H](n2cnc3c(N[C@H]4CCC[C@@H]4O)ncnc32)[C@H](O)[C@@H]1O (relative stereo) [N-[(1S,trans)-2-hydroxycyclopentyl]-adenosine] | dose-dependent suppression of apnea |
| CCNC(=O)C1OC(n2cnc3c(N)nc(NCCc4ccc(CCC(=O)O)cc4)nc32)C(O)C1O.Cl (stereo not drawn) [2-p-(2-carboxyethyl)-phenethyl-amino-5′-N-ethylcarboxamido-adenosine hydrochloride] | dose-dependent suppression of apnea |
| C[C@H](Cc1ccccc1)Nc1ncnc2c1ncn2[C@@H]1O[C@H](CO)[C@@H](O)[C@H]1O [phenylisopropyl adenosine] | dose-dependent suppression of apnea |
